Results on two molecules are retold here after US9789098B2, “Nootropic compositions for improving memory performance” (Pharnext, priority 2012, dated 2017).

A short description of data set [1]: clinical. The note with it: human, in vivo, po. The text has this: Pharmacodynamics of baclofen and acamprosate have been established in the frame of clinical trial.
For data set [2], the system named is 11 month-old C57B1/6 mice. In words: % of alternation in T-maze test, healthy mice (short term memory). Type of data set: in vivo. The note with it: administered once 2 hours before the test, very low doses (mix doses 4 and 5), FIG. 2. Here is the method:
11 month-old C57B1/6 mice are used. They are group-housed (5-10 mice per cage) and maintained in a room with controlled temperature (21-22° C.) and a reversed light-dark cycle (12 h/12 h; lights on: 17:30-05:30; lights off: 05:30-17:30) with food and water available ad libitum.
Drugs are solubilized in water and freshly prepared just before each gavage or ip administration and are kept under agitation.
Doses of drugs of the invention are exemplified in table 4. Concerning acamprosate calcium, the indicated doses refer to the doses of the salt of molecule.
Between day 0 and day 7, drug combinations or the vehicle solution were administered twice daily (at 8:00 am and 6:00 pm). One animal group receives donepezil (reference compound 0.3 mg/kg) at 8:00 am and the vehicle at 6:00 pm.
On day 8, all animals were tested for the % of alternation performance in the T-maze test, 2 hours after the administration of drugs combination or the vehicle solution.
The eve of the test, drug combinations or the vehicle solution were administered at 8:00 am and 6:00 pm. […]
The effect of the administration of combinations on short term memory was assessed for different durations of treatment (7 days, 1 day, 2 hours before the test). […]
The percent spontaneous alternation was calculated as the number of spontaneous alternations divided by the number of free-choice trials. […]

Structures are written as SMILES.

`NCC(CC(=O)O)c1ccc(Cl)cc1` (racemic) [baclofen, Baclofen]: in data set [1], the time of peak concentration (Tmax) (in general, the time at which the peak concentration occurs) is 1.5 h. Also, the “improvement of learning and working memory performances vs vehicle” value in data set [2] is given as “no significant improvement”.
For `CC(=O)NCCCS(=O)(=O)O` [acamprosate, Acamprosate], in that order: 1.5 to 2 h and “no significant improvement”.
